PubChem BioAssay (NCI)
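A five-concentration, 48-hour dose response in 96-well plates underlies each endpoint, interpolated linearly between surrounding concentrations. TGI denotes the concentration required for complete inhibition of growth.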

Experiments:
Assay in all cases: NCI anticancer screen, dose series, 48 h
HCC-2998 colon = test system: HCC-2998 colon
TK-10 renal = test system: TK-10 renal
HOP-18 NSCLC = test system: HOP-18 NSCLC
SK-MEL-28 melanoma = test system: SK-MEL-28 melanoma
SK-OV-3 ovarian = test system: SK-OV-3 ovarian
OVCAR-8 ovarian = test system: OVCAR-8 ovarian
COLO 205 colon = test system: COLO 205 colon
UACC-62 melanoma = test system: UACC-62 melanoma
OVCAR-4 ovarian = test system: OVCAR-4 ovarian
LXFL 529 NSCLC = test system: LXFL 529 NSCLC
DLD-1 colon = test system: DLD-1 colon
HOP-62 NSCLC = test system: HOP-62 NSCLC
786-0 renal = test system: 786-0 renal
KM20L2 colon = test system: KM20L2 colon
SF-295 CNS = test system: SF-295 CNS
HT29 colon = test system: HT29 colon
HCT-15 colon = test system: HCT-15 colon
SNB-19 CNS = test system: SNB-19 CNS
NCI-H23 lung = test system: NCI-H23 lung
MALME-3M melanoma = test system: MALME-3M melanoma
HL-60(TB) leukemia = test system: HL-60(TB) leukemia
OVCAR-5 ovarian = test system: OVCAR-5 ovarian
M14 melanoma = test system: M14 melanoma
RXF 393 renal = test system: RXF 393 renal
UACC-257 melanoma = test system: UACC-257 melanoma
LOX IMVI melanoma = test system: LOX IMVI melanoma
SK-MEL-5 melanoma = test system: SK-MEL-5 melanoma
HOP-92 NSCLC = test system: HOP-92 NSCLC
SR leukemia = test system: SR leukemia
XF 498 CNS = test system: XF 498 CNS
K-562 leukemia = test system: K-562 leukemia
UO-31 renal = test system: UO-31 renal
HCT-116 colon = test system: HCT-116 colon
SF-539 CNS = test system: SF-539 CNS
SNB-75 CNS = test system: SNB-75 CNS
ACHN renal = test system: ACHN renal
EKVX NSCLC = test system: EKVX NSCLC
DMS 114 small cell lung = test system: DMS 114 small cell lung
RPMI-8226 leukemia = test system: RPMI-8226 leukemia
SW-620 colon = test system: SW-620 colon
A498 renal = test system: A498 renal
NCI-H460 lung = test system: NCI-H460 lung
OVCAR-3 ovarian = test system: OVCAR-3 ovarian
IGROV1 ovarian = test system: IGROV1 ovarian
NCI-H522 lung = test system: NCI-H522 lung
SN12C renal = test system: SN12C renal
CAKI-1 renal = test system: CAKI-1 renal
NCI-H226 lung = test system: NCI-H226 lung
CCRF-CEM leukemia = test system: CCRF-CEM leukemia
KM12 colon = test system: KM12 colon
U251 CNS = test system: U251 CNS
A549 NSCLC = test system: A549 NSCLC
SF-268 CNS = test system: SF-268 CNS
M19-MEL melanoma = test system: M19-MEL melanoma

Measured: TGI

CCc1cccc(C(C)C)c1NC(=O)C(=O)C1C(=O)NC(=O)NC1=O
> 100 µM: all assays above
